What was measured:
[1] = system: barnyardgrass; assay: Test A pre-/postemergence herbicide test; assay type: in vivo, Echinochloa crus-galli
Procedure, shortened: (§1)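 Formulated compound (non-phytotoxic solvent, surfactant) sprayed pre- onto soil of seeded loam/sand pots or post- onto seedlings at 1–2 leaves; ~10 d greenhouse; 0–100 visual control rating versus untreated.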

[2] = system: kochia; assay: Test A pre-/postemergence herbicide test; assay type: in vivo, Kochia scoparia; details: for Plant response rating, Kochia: 0 to 100 scale
Procedure, shortened: as §1

[3] = system: ragweed; assay: Test A pre-/postemergence herbicide test; assay type: in vivo, Ambrosia elatior; details: for Plant response rating, Ragweed: 0 to 100 scale
Procedure, shortened: as §1

[4] = system: ryegrass, Italian; assay: Test A pre-/postemergence herbicide test; assay type: in vivo, Lolium multiflorum; details: for Plant response rating, Ryegrass, Italian: 0 to 100 scale
Procedure, shortened: as §1

[5] = system: giant foxtail; assay: Test A pre-/postemergence herbicide test; assay type: in vivo, Setaria faberii; details: for Plant response rating, Foxtail, Giant: 0 to 100 scale
Procedure, shortened: as §1

[6] = system: pigweed; assay: Test A pre-/postemergence herbicide test; assay type: in vivo, Amaranthus retroflexus; details: for Plant response rating, Pigweed: 0 to 100 scale
Procedure, shortened: as §1

[7] = system: wheat; assay: Test A pre-/postemergence herbicide test; assay type: in vivo, Triticum aestivum; details: Postemergence; for Plant response rating, Wheat: 125 g ai/ha, 0 to 100 scale, 0 no effect, 100 complete control; for Wheat plant response rating (0 to 100 scale, 0 is no effect, 100 is complete control): 500 g ai/ha
Procedure, shortened: as §1

[8] = system: corn; assay: Test A pre-/postemergence herbicide test; assay type: in vivo, Zea mays; details: Postemergence
Procedure, shortened: as §1

[9] = system: blackgrass; assay: Test A postemergence herbicide test; assay type: in vivo, Alopecurus myosuroides
Procedure, shortened: (§2)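 Young potted plants in a loam–sand mix, one- to two-leaf stage and 2–10 cm tall, receive the test chemical postemergence and stay in a greenhouse for approximately 10 days. Injury is then judged by eye against untreated plants, scored 0 (none) to 100 (complete control).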

[10] = system: galium; assay: Test A postemergence herbicide test; assay type: in vivo, Galium aparine; details: for Plant response rating, Galium: 125 g ai/ha, 0 to 100 scale, 0 no effect, 100 complete control; for Galium plant response rating (0 to 100 scale, 0 is no effect, 100 is complete control): 500 g ai/ha
Procedure, shortened: as §2

[11] = system: rice; assay: Test B flooded paddy test; assay type: in vivo, Oryza sativa; details: 500 g ai/ha, Flood; scale of 0 to 100 where 0 is no effect and 100 is complete control
Procedure, shortened: (§3)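 Treatment was made at the 2-leaf stage by dosing the standing floodwater, kept 3 cm above soil level for the whole test. Greenhouse exposure lasted 13 to 15 days. Response is a visual percent rating relative to controls, where a dash indicates no test result.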

[12] = system: sedge, umbrella; assay: Test B flooded paddy test; assay type: in vivo, Cyperus difformis; details: 500 g ai/ha, Flood; scale of 0 to 100 where 0 is no effect and 100 is complete control
Procedure, shortened: as §3

[13] = system: ducksalad; assay: Test B flooded paddy test; assay type: in vivo, Heteranthera limosa; details: 500 g ai/ha, Flood; scale of 0 to 100 where 0 is no effect and 100 is complete control
Procedure, shortened: as §3

[14] = system: barnyardgrass; assay: Test B flooded paddy test; assay type: in vivo, Echinochloa crus-galli; details: 500 g ai/ha, Flood; scale of 0 to 100 where 0 is no effect and 100 is complete control
Procedure, shortened: as §3

[15] = 125 g ai/ha, visual rating, 0 to 100 scale, 0 no effect, 100 complete control, approximately 10 days, preemergence
[16] = Postemergence, 125 g ai/ha, 0 to 100 scale, 0 no effect, 100 complete control
[17] = preemergence, 500 g ai/ha, 0 to 100 scale (0 no effect, 100 complete control)
[18] = 125 g ai/ha, visual rating, 0 no effect, 100 complete control, approximately 10 days, preemergence
[19] = Postemergence, 125 g ai/ha, 0 no effect, 100 complete control
[20] = 125 g ai/ha, 0 to 100 scale, 0 no effect, 100 complete control
[21] = 500 g ai/ha, 0 to 100 scale (0 no effect, 100 complete control)

| Structure (SMILES) | Plant response rating, Barnyardgrass [1, 15] | Plant response rating, Barnyardgrass [1, 16] | Plant response rating, Barnyardgrass [1, 17] | Plant response rating, Kochia [2, 18] | Plant response rating, Kochia [2, 19] | Kochia plant response rating (0 to 100 scale, 0 is no effect, 100 is complete control) ([2]; Postemergence, 500 g ai/ha) | Plant response rating, Kochia ([2]; preemergence, 500 g ai/ha) | Plant response rating, Ragweed [3, 18] | Plant response rating, Ragweed [3, 19] | Ragweed plant response rating (0 to 100 scale, 0 is no effect, 100 is complete control) ([3]; Postemergence, 500 g ai/ha) | Plant response rating, Ragweed ([3]; preemergence, 500 g ai/ha) | Plant response rating, Ryegrass, Italian [4, 18] | Plant response rating, Ryegrass, Italian [4, 19] | Ryegrass, Italian plant response rating (0 to 100 scale, 0 is no effect, 100 is complete control) ([4]; Postemergence, 500 g ai/ha) | Plant response rating, Ryegrass, Italian ([4]; preemergence, 500 g ai/ha) | Plant response rating, Foxtail, Giant [5, 18] | Plant response rating, Foxtail, Giant [5, 19] | Foxtail, Giant plant response rating (0 to 100 scale, 0 is no effect, 100 is complete control) ([5]; Postemergence, 500 g ai/ha) | Plant response rating, Foxtail, Giant ([5]; preemergence, 500 g ai/ha) | Plant response rating, Pigweed [6, 18] | further results |
| --- | --- | --- | --- | --- | --- | --- | --- | --- | --- | --- | --- | --- | --- | --- | --- | --- | --- | --- | --- | --- | --- |
| O=C1NCC(c2cccc(OC(F)(F)C(F)F)c2)C1C(=O)Nc1cccc(F)c1F (racemic) [Compound 123] | 80 | 70 | 90 | 80 | 60 | 70 | 90 | 70 | 50 | 70 | 80 | 40 | 40 | 50 | 60 | 90 | 80 | 90 | 90 | 70 | Plant response rating, Barnyardgrass ([1]; Postemergence, 500 g ai/ha, 0 to 100 scale (0 no effect, 100 complete control)): 80; Plant response rating, Pigweed [6, 19]: 80; Pigweed plant response rating (0 to 100 scale, 0 is no effect, 100 is complete control) ([6]; Postemergence, 500 g ai/ha): 90; Plant response rating, Pigweed ([6]; preemergence, 500 g ai/ha): 80; Plant response rating, Wheat [7]: 50; Wheat plant response rating (0 to 100 scale, 0 is no effect, 100 is complete control) [7]: 60; Plant response rating, Corn [8, 20]: 50; Plant response rating, Corn [8, 21]: 80; Plant response rating, Blackgrass [9, 20]: 60; Plant response rating, Blackgrass [9, 21]: 70; Plant response rating, Galium [10]: 60; Galium plant response rating (0 to 100 scale, 0 is no effect, 100 is complete control) [10]: 70; Plant response rating, Rice [11]: 0; Plant response rating, Sedge, Umbrella [12]: 0; Plant response rating, Ducksalad [13]: 100; Plant response rating, Barnyardgrass [14]: 60 |
| Cc1ccc(C2CNC(=O)C2C(=O)Nc2ccc(F)c(F)c2F)cc1F (racemic) [Compound 147] | 90 | 90 | 90 | 30 | 40 | 60 | 80 | 0 | 0 | 50 | 50 | 0 | 20 | 50 | 40 | 80 | 40 | 70 | 90 | 0 | Barnyardgrass plant response rating (0 to 100 scale, 0 is no effect, 100 is complete control) ([1]; Postemergence, 500 g ai/ha): 90; Plant response rating, Pigweed [6, 19]: 0; Pigweed plant response rating (0 to 100 scale, 0 is no effect, 100 is complete control) ([6]; Postemergence, 500 g ai/ha): 10; Plant response rating, Pigweed ([6]; preemergence, 500 g ai/ha): 0; Plant response rating, Wheat [7]: 0; Wheat plant response rating (0 to 100 scale, 0 is no effect, 100 is complete control) [7]: 40; Plant response rating, Corn [8, 20]: 0; Corn plant response rating (0 to 100 scale, 0 is no effect, 100 is complete control) ([8]; 500 g ai/ha): 50; Plant response rating, Blackgrass [9, 20]: 40; Blackgrass plant response rating (0 to 100 scale, 0 is no effect, 100 is complete control) ([9]; 500 g ai/ha): 60; Plant response rating, Galium [10]: 50; Galium plant response rating (0 to 100 scale, 0 is no effect, 100 is complete control) [10]: 60; Plant response rating, Rice [11]: 0; Plant response rating, Sedge, Umbrella [12]: 0; Plant response rating, Ducksalad [13]: 100; Plant response rating, Barnyardgrass [14]: 70 |

Source: patent US10294202B2, “Pyrrolidinones as herbicides” (FMC Corporation, priority 2013, dated 2019)
